Test results from patent US12233129B2, “Methods and compositions for the treatment of cancer” (priority 2019, dated 2025).

How the values were obtained:
Experiment in all cases: Annexin V staining and flow cytometry (positive control)
Type in all cases: cell-based, human
Conditions in all cases: 100 nM, 24 hours
CCD-18Co = tested on: CCD-18Co
Method: (§1) Apoptosis in cells was assessed using an Annexin V Apoptosis Detection Kit (BD Pharmingen, San Jose, CA, USA) analyzed by using a BD Accuri C6 flow cytometer according to the manufacturer's instructions.
(§2) HCT-116 or SW48 were transfected with GFP empty vector or GFP-UBXN2A using the Neon electrotransfection system (HCT-116 and SW48) or lipofectamin 2000 (CCD-118-Co), achieving around 80% transfection efficiency. Apoptosis in cells was assessed using an Annexin V Apoptosis Detection Kit (BD Pharmingen, San Jose, CA) analyzed by a BD Accuri C6 flow cytometer according to the manufacturer's instructions. In each individual experiment, GFP expressing cells were first gated and then plotted versus Annexin V positive cells. 10,000 gated events were collected per sample. An apoptotic inducer, staurosporine (Sigma), was used as a positive control in all experiments.
(§3) FIG. 12: Annexin V staining and flow cytometry is a valid assay for measurement of early apoptosis. Un-transfected CCD-18Co, HCT-116, and SW48 cells were incubated with vehicle or staurosporine, a well-known inducer of apoptosis in a wide range of cell lines, for 24 hours. Subsequently, cells were stained with BD Biosciences Cy5 Annexin V and read on an Accuri C6 flow cytometer. Panel A. The histograms show a comparison of the distribution of Annexin V positive cells in un-transfected CCD-18Co, HCT-116 and SW48 cells (no gating). […] Panel C-D: We conducted a set of IP experiments to further confirm UBXN2A can only bind to the SBD domain and not the ATP domain. HCT-116 cells were transiently transfected with SBD domain or ATP domain of mot-2. After 36 hours, cell lysates were prepared followed by immunoprecipitation using anti-UBXN2A immobilized on magnetic protein G beads. Immunoprecipitation experiments verified UBXN2A binds to the SBD domain of mot-2 (amino acid residue 432-679) in HCT-116 cells and not the ATP domain (amino acid residue 1-437). This set of immunoprecipitation experiments verified results achieved in Y2H experiments. […]

SW48 = tested on: SW48
Method: as §1, §2, §3

HCT-116 = tested on: HCT-116
Method: as §1, §2, §3

Measured: apoptosis (Annexin V positive cells)

CN[C@@H]1C[C@H]2O[C@@](C)([C@@H]1OC)n1c3ccccc3c3c4c(c5c6ccccc6n2c5c31)C(=O)NC4 [staurosporine]
induce significant apoptosis: CCD-18Co | SW48 | HCT-116
